According to US6486196B2, “Anticancer compounds: process for their preparation and pharmaceutical compositions containing them” (Dr. Reddy's Research Foundation, priority 2000, dated 2002):
Where two headings read alike, the source gives them in different places.

Experiments:
HIV-1/MN = assay: Anti HIV activity in PM-1 cells (P24 ELISA, MTT corrected); type: cell-based; settings: 1 μM; PM-1 cells infected with HIV-1/MN, 96 h, P24 antigen corrected by MTT
Protocol: Human CD^4+ T cell line PM-1 used in the assay was cultured in RPMI-1640 medium containing 10% Fetal bovine serum, 2 g/L sodium bicarbonate, 100,000 units/L Pencillin-G and 100 mg/L streptomycin. Healthy PM-1 cells were plated on the first day in a 96 well plate at 2×10^6 cells per well. After 24 h HIV-1/MN was added to the culture and incubated for 2 h for infection. Cells were washed twice with PBS to remove the virus in the culture. Different concentrations of DRF compounds ranging from 10−^4 to 10^−8 M were added to the culture and incubated for 96 h. The viability of cells was then assessed by standard MTT assay and the viral antigen P24 levels were estimated by ELISA method. Based on the MTT assay values the P 24 antigen values were corrected.
All the samples were tested in triplicates and the average was used for calculations. AZT was used as standard compound for comparision.

KB = KB cells; cited from earlier work
[1] = system: P388 lymphocytic leukemia; settings: P388 cells; cited from earlier work
UACC62 = assay: Sulforhodamine B growth inhibition, melanoma UACC62; type: cell-based, human; settings: Homo sapiens, UACC-62, 48 h, SRB, read-out: GROWTH INHIBITION (GI 50)
Protocol: (§1) Each test compound was screened against a battery of cell lines representing eight different types of cancers. In a typical procedure, 1×10^4 cells were seeded into each well of 96 well plate in 100 μL volume of RPMI 1640 medium containing antibiotics and 10% FCS.
(§2) The plates were incubated at 37° C. in presence of CO2. After 24 h, test compounds were evaluated at five 10 fold dilutions ranging from 100 to 0.01 μM. To each test well 100 μL of test compound solution was added and medium with vehicle was added to control wells and the plates were further incubated. After 48 h of incubation, plates were terminated by Sulforhodamine B method.
(§3) The optical density which is proportional to protein mass, is then read by automated spectrophotometric plate reader at a wavelength of 515 nm.

HT29 = assay: Sulforhodamine B growth inhibition, colon HT29; type: cell-based, human; settings: Homo sapiens, HT-29, 48 h, SRB, read-out: GROWTH INHIBITION (GI 50)
Protocol: as §1, §2, §3

U251 = assay: Sulforhodamine B growth inhibition, CNS U251; type: cell-based, human; settings: SRB, read-out: GROWTH INHIBITION (GI 50)
Protocol: as §1, §2, §3

MCF7 = assay: Sulforhodamine B growth inhibition, breast MCF7; type: cell-based, human; settings: Homo sapiens, 48 h, SRB, read-out: GROWTH INHIBITION (GI 50)
Protocol: as §1, §2, §3

PA1 = assay: Sulforhodamine B growth inhibition, ovarian PA1; type: cell-based, human; settings: Homo sapiens, PA-1, 48 h, SRB, read-out: GROWTH INHIBITION (GI 50)
Protocol: as §1, §2, §3

H522 = assay: Sulforhodamine B growth inhibition, lung H522; type: cell-based, human; settings: SRB, read-out: GROWTH INHIBITION (GI 50)
Protocol: as §1, §2, §3

SKOV-3 = assay: Sulforhodamine B growth inhibition, ovarian SKOV-3; type: cell-based, human; settings: SRB, read-out: GROWTH INHIBITION (GI 50)
Protocol: as §1, §2, §3

A498 = assay: Sulforhodamine B growth inhibition, renal A498; type: cell-based, human; settings: 48 h, SRB, read-out: GROWTH INHIBITION (GI 50)
Protocol: as §1, §2, §3

MCF-7/ADR = assay: Sulforhodamine B growth inhibition, breast MCF-7/ADR; type: cell-based, human; settings: 48 h, SRB, read-out: GROWTH INHIBITION (GI 50)
Protocol: as §1, §2, §3

SW-620 = assay: Sulforhodamine B growth inhibition, colon SW-620; type: cell-based, human; settings: 48 h, SRB, read-out: GROWTH INHIBITION (GI 50)
Protocol: as §1, §2, §3

DU145 = assay: Sulforhodamine B growth inhibition, prostate DU145; type: cell-based, human; settings: SRB, read-out: GROWTH INHIBITION (GI 50)
Protocol: as §1, §2, §3

PC-3 = assay: Sulforhodamine B growth inhibition, prostate PC-3; type: cell-based, human; settings: Homo sapiens, 48 h, SRB, read-out: GROWTH INHIBITION (GI 50)
Protocol: as §1, §2, §3

ACHN = assay: Sulforhodamine B growth inhibition, renal ACHN; type: cell-based; settings: Homo sapiens, 48 h, SRB, read-out: GROWTH INHIBITION (GI 50)
Protocol: as §1, §2, §3

M14 = assay: Sulforhodamine B growth inhibition, melanoma M14; type: cell-based, human; settings: 48 h, SRB, read-out: GROWTH INHIBITION (GI 50)
Protocol: as §1, §2, §3

HIV-1 (EIB) = settings: cited from earlier work

Cc1cn([C@H]2C[C@H](N=[N+]=[N-])[C@@H](CO)O2)c(=O)[nH]c1=O [AZT, reference compound]
Percentage Inhibition (HIV-1/MN): 72.47%

C=C1CC[C@@H]2[C@](C)(CO)[C@H](O)CC[C@@]2(C)[C@@H]1C/C=C1/C(=O)OC[C@H]1O [Andrographolide]
cytotoxic activity (KB): potent cytotoxic activity | cytotoxic activity [1]: potent cytotoxic activity

C=C1CC[C@@H]2[C@]3(C)COC(C)(C)O[C@@H]3CC[C@@]2(C)[C@@H]1C/C=C1/C(=O)OC[C@H]1O [Example 1, 3,19-isopropylidene andrographolide]
GI50 (UACC62): 4 µM | GI50 (HT29): 2 µM | GI50 (U251; Homo sapiens, U-251, 48 h): 4 µM | GI50 (MCF7): 13 µM | GI50 (PA1): 2 µM | GI50 (H522; Homo sapiens, NCI-H522, 48 h): 14 µM | GI50 (SKOV-3; Homo sapiens, SK-OV-3, 48 h): 8 µM | melting point: 194.5 °C | GI50 (A498; Homo sapiens): 13 µM | GI50 (MCF-7/ADR; Homo sapiens, NCI/ADR-RES): 2 µM | GI50 (SW-620; Homo sapiens): 5 µM

C=C1CCC2[C@]3(C)COC(c4ccccc4)O[C@@H]3CC[C@]2(C)[C@H]1C/C=C1/C(=O)OC[C@H]1O (stereo partly drawn) [Example 2, 3,19-Benzylidene andrographolide]
melting point: 142 to 143 °C

C=C1CCC2[C@]3(C)COC(C)(c4ccccc4)O[C@@H]3CC[C@]2(C)[C@H]1C/C=C1/C(=O)OC[C@H]1O (stereo partly drawn) [Example 3, 3,19-(1-Phenylethylidene)andrographolide]
GI50 (UACC62): 3 µM | GI50 (HT29): 2 µM | GI50 (U251; Homo sapiens, U-251, 48 h): 2 µM | GI50 (MCF7): 12 µM | GI50 (PA1): 19 µM | GI50 (H522; Homo sapiens, NCI-H522, 48 h): 12 µM | GI50 (SKOV-3; Homo sapiens, SK-OV-3, 48 h): 5 µM | melting point: 201 to 203 °C | GI50 (A498; Homo sapiens): 3 µM | GI50 (MCF-7/ADR; Homo sapiens, NCI/ADR-RES): 2 µM | GI50 (SW-620; Homo sapiens): 5 µM

C=C1CCC2[C@]3(C)COC(C)(C)O[C@@H]3CC[C@]2(C)[C@H]1C/C=C1/C(=O)OC[C@H]1OC(=O)[C@H](CCSC)NC(=O)OC(C)(C)C (stereo partly drawn) [Example 4, 3,19-isopropylidene-14-(N-Boc-methionyl)andrographolide]
melting point: 70 °C

C=C1CCC2[C@](C)(CO)[C@H](O)CC[C@]2(C)[C@H]1C/C=C1/C(=O)OC[C@H]1OC(C)=O (stereo partly drawn) [Example 7, 14-acetyl andrographolide]
melting point: 169 °C

C=C1CCC2[C@](C)(CO)[C@H](O)CC[C@]2(C)[C@H]1C/C=C1/C(=O)OC[C@H]1OC(=O)Nc1ccccc1 (stereo partly drawn) [Example 9, 14-phenylcarbamoyl andrographolide]
GI50 (DU145; Homo sapiens, DU-145, 48 h): 6 µM | GI50 (PC-3): 3 µM | GI50 (UACC62): 3 µM | GI50 (HT29): 4 µM | GI50 (U251; Homo sapiens, U-251, 48 h): 6.5 µM | GI50 (ACHN): 5 µM | GI50 (MCF7): 2.5 µM | GI50 (H522; Homo sapiens, NCI-H522, 48 h): 12 µM | GI50 (SKOV-3; Homo sapiens, SK-OV-3, 48 h): 3 µM | melting point: 120 °C | GI50 (MCF-7/ADR; Homo sapiens, NCI/ADR-RES): 0.4 µM | GI50 (SW-620; Homo sapiens): 2.5 µM

C=C1CCC2[C@](C)(CO)[C@H](O)CC[C@]2(C)[C@H]1C/C=C1/C(=O)OC[C@H]1OC(=O)NC(C)C (stereo partly drawn) [Example 10, 14-(N-isopropyl)carbamoyl andrographolide]
melting point: 122 °C

C=C1CCC2[C@](C)(CO)[C@H](O)CC[C@]2(C)[C@H]1C/C=C1/C(=O)OC[C@H]1OC(=O)/C=C/c1ccccc1 (stereo partly drawn) [Example 11, 14-Cinnamoyl andrographolide]
melting point: 77 °C

C=C1CCC2[C@](C)(CO)[C@H](O)CC[C@]2(C)[C@H]1C/C=C1/C(=O)OC[C@H]1OC(=O)C(C)C (stereo partly drawn) [Example 12, 14-Isopropanoyl andrographolide]
melting point: 122.6 °C

C=C1CCC2[C@](C)(CO)[C@H](O)CC[C@]2(C)[C@H]1C/C=C1/C(=O)OC[C@H]1OC(=O)C(C)(C)C (stereo partly drawn) [Example 13, 14-Pivaloyl andrographolide]
melting point: 172.7 °C

C=C1CCC2[C@](C)(CO)[C@H](O)CC[C@]2(C)[C@H]1C/C=C1/C(=O)OC[C@H]1OC(=O)c1ccccc1 (stereo partly drawn) [Example 14, 14-Benzoyl andrographolide]
GI50 (DU145; Homo sapiens, DU-145, 48 h): 6 µM | GI50 (PC-3): 2 µM | GI50 (UACC62): 3 µM | GI50 (HT29): 4 µM | GI50 (U251; Homo sapiens, U-251, 48 h): 1.5 µM | GI50 (ACHN): 5 µM | GI50 (MCF7): 10 µM | GI50 (H522; Homo sapiens, NCI-H522, 48 h): 7.5 µM | GI50 (SKOV-3; Homo sapiens, SK-OV-3, 48 h): 3.5 µM | melting point: 85.5 to 87 °C | GI50 (MCF-7/ADR; Homo sapiens, NCI/ADR-RES): 3.5 µM | GI50 (SW-620; Homo sapiens): 3 µM

C=C1CCC2[C@](C)(CO)[C@H](O)CC[C@]2(C)[C@H]1C/C=C1/C(=O)OC[C@H]1OCc1ccccc1 (stereo partly drawn) [Example 15, 14-Benzyl andrographolide]
GI50 (DU145; Homo sapiens, DU-145, 48 h): 4 µM | GI50 (PC-3): 2 µM | GI50 (UACC62): 3.5 µM | GI50 (HT29): 3.5 µM | GI50 (U251; Homo sapiens, U-251, 48 h): 40 µM | GI50 (ACHN): 4 µM | GI50 (MCF7): 6 µM | GI50 (H522; Homo sapiens, NCI-H522, 48 h): 12 µM | GI50 (SKOV-3; Homo sapiens, SK-OV-3, 48 h): 3 µM | melting point: 141 °C | GI50 (MCF-7/ADR; Homo sapiens, NCI/ADR-RES): 20 µM | GI50 (SW-620; Homo sapiens): 3.5 µM

C=C1CC[C@@H]2[C@](C)(COC(C)=O)[C@H](OC(C)=O)CC[C@@]2(C)[C@@H]1C/C=C1/C(=O)OC[C@H]1OC(=O)C(O)C(NC(=O)c1ccccc1)c1ccccc1 (stereo partly drawn) [Example 18, 3,19-Diacetyl-14-(2′hydroxy-3′-benzoylamino 3′-phenyl)propionyl andrographolide]
GI50 (DU145; 48 h): 3 µM | GI50 (M14): 3 µM | GI50 (U251; 48 h): 8 µM | GI50 (H522; 48 h): 20 µM | GI50 (SKOV-3; 48 h): 4 µM | GI50 (A498): 10 µM | GI50 (MCF-7/ADR): 8 µM | GI50 (SW-620): 5 µM

C=C1CCC2[C@](C)(COC(=O)CC)[C@H](OC(=O)CC)CC[C@]2(C)[C@H]1C/C=C1/C(=O)OC[C@H]1OC(=O)CNC(=O)OC(C)(C)C (stereo partly drawn) [Example 20, 14-(N-Boc-glycinyl)-3,19-dipropionyl andrographolide]
melting point: 65 °C

C=C1CC[C@@H]2[C@](C)(COC(C)=O)[C@H](OC(C)=O)CC[C@@]2(C)[C@@H]1C/C=C1/C(=O)OC[C@H]1OC(=O)CNC(C)=O [Example 22, 14-(N-acetyl-glycinyl)-3,19-diacetyl andrographolide]
GI50 (DU145; 48 h): 8 µM | GI50 (M14): 9.5 µM | GI50 (U251; 48 h): 1.5 µM | GI50 (H522; 48 h): 20 µM | GI50 (SKOV-3; 48 h): 30 µM | GI50 (A498): 25 µM | GI50 (MCF-7/ADR): 8 µM | GI50 (SW-620): 5 µM

C=C1CCC2[C@](C)(COC(=O)CC)C(OC(=O)CC)CC[C@]2(C)[C@H]1C/C=C1/C(=O)OCC1OC(=O)/C=C/c1ccc(OC)c(OC)c1 (stereo partly drawn) [Example 27, 14-(3,4-dimethoxy)cinnamoyl-3,19-dipropionyl andrographolide]
melting point: 85.4 °C

dehydroandrographolide succinic acid monoester [DASM]
minimal concentration inhibitory to HIV-1 (EIB) (HIV-1 (EIB)): 1.6 to 3.1 µg/mL
